Consider two compounds from US20100323012A1, “Pharmaceutical Compositions Comprising NEP-Inhibitors, Inhibitors of the Endogenous Endothelin Producing System and Diuretics” (Solvay Pharmaceuticals GmbH, priority 2005, published 2010).

Each structure is given as a SMILES string.

In the test the test system is spontaneously hypertensive rat. Kind of test: Telemetric monitoring of blood pressure and heart rate in spontaneously hypertensive rats, compounds given via drinking water. It is filed as in vivo. The conditions noted are these: male SHR; for effect on blood pressure (in words): 3 weeks of treatment via drinking water; for DBP (diastolic blood pressure), effect in relation to baseline, group mean of 24 hour means / HR (heart rate), effect in relation to baseline, group mean of 24 hour means / SBP (systolic blood pressure), effect in relation to baseline, group mean of 24 hour means: day 23 (after 3 weeks of treatment) minus baseline (day 3), via drinking water, intended 10 mg/kg/day hydrochlorothiazide, 100 mg/kg/day daglutril, n = 5 per group. The source says:
Male spontaneously hypertensive rats (=SHR, insulin resistant strain from Charles River; aged 6 months) were equipped with telemetry transmitters for continuous monitoring of blood pressure and heart rate (TA11PA-C40, DSI, USA). Telemetry transmitters for continuous monitoring of blood pressure, heart rate and locomotor activity (TA11PA-C40, Data Sciences, USA) were implanted intraabdominally under inhalative halothane anesthesia. A midline abdominal incision was made, and the abdominal aorta was visualized by removal of retroperitoneal fat and connective tissue. A ligature was placed caudal of the renal arteries, the aorta was punctured with a 22G needle, and the catheter was advanced into the aorta. The entry point was sealed with tissue adhesive (Vetbond, 3M, USA), the ligature was removed, and the abdominal incision was closed. Measurements of aortic pressure were taken every 5 minutes (=min) for 4 seconds (=s) each at a sampling rate of 500 Hz, and were corrected for the corresponding ambient pressure (ambient pressure monitor, C11PR, Data Sciences, USA).
After 3 days of monitoring under baseline (untreated) conditions, animals received daglutril via their drinking water. The intended daily dose was 100 mg/kg/day of daglutril. The concentration in drinking water was adjusted once per week, resulting in an average drug intake of 98 mg/kg/day.
In a second experiment, rats were divided into two treatment groups receiving hydrochlorothiazide or hydrochlorothiazide+daglutril. Compounds were administered via the drinking water, and daily drug intake was measured by weighing the water bottles thrice weekly. Intended daily doses were 10 mg/kg/day of hydrochlorothiazide plus, in the combination group, 100 mg/kg/day of daglutril.
Concentrations of hydrochlorothiazide and daglutril in the drinking water were adjusted once per week, in order to ensure the intended daily intake of 10 and 100 mg/kg, respectively. The average daily water intake amounted to 57 and 46 ml/kg in the hydrochlorothiazide and hydrochlorothiazide+daglutril group, respectively, resulting in the uptake of 9.5 mg/kg/day of hydrochlorothiazide in the hydrochlorothiazide group, and 9.4 mg/kg/day of hydrochlorothiazide and 94.4 mg/kg/day of daglutril in the combination group.
The blood pressure, heart rate and activity values, sampled in 5 min intervals by the Dataquest™ system, were used for calculation of individual 24 hour means. These 24 hour means were exported to Excel, and group mean values of systolic blood pressure (=SBP), diastolic blood pressure (=DBP), heart rate (=HR), and locomotor activity (=ACT) were calculated for the daglutril, hydrochlorothiazide and the hydrochlorothiazide+daglutril groups. For the statistical analysis, a baseline value (pre) was calculated from the last day prior to compound application (day 3), and effects of daglutril, hydrochlorothiazide and hydrochlorothiazide+daglutril were calculated in relation to this baseline value (day 23, i.e. after 3 weeks of treatment, minus baseline value). The statistical comparison was done by using univariate ANOVA at an error level of P<0.05.

As to `NS(=O)(=O)c1cc2c(cc1Cl)NCNS2(=O)=O` [HCTZ, hydrochlorothiazide], the “effect on blood pressure (in words)” value is recorded as “moderate decrease”; the “DBP (diastolic blood pressure), effect in relation to baseline, group mean of 24 hour means” value is on record as −7.7 mmHg; the “HR (heart rate), effect in relation to baseline, group mean of 24 hour means” value is -4.5 min⁻¹; the “SBP (systolic blood pressure), effect in relation to baseline, group mean of 24 hour means” value was −11.3 mmHg.

Take `CCOC(=O)C(CCc1ccccc1)CC1(C(=O)NC2CCc3ccccc3N(CC(=O)O)C2=O)CCCC1` (centres unmarked) [daglutril, 2-[1-(1-carboxymethyl-2-oxo-2,3,4,5-tetrahydro-1H-benzo[b]azepin-3-ylcarbamoyI)-cyclopentylmethyl]-4-phenyl-butyric acid ethyl ester]: the “effect on blood pressure (in words)” value was “no effect”; the “DBP (diastolic blood pressure), effect in relation to baseline, group mean of 24 hour means” value is 2.0 mmHg; the “HR (heart rate), effect in relation to baseline, group mean of 24 hour means” value was -6.0 min⁻¹; the “SBP (systolic blood pressure), effect in relation to baseline, group mean of 24 hour means” value is −0.3 mmHg.
